Reference: patent publication US6825194B2, “Hexacyclic compounds” (Chugai Seiyaku Kabushiki Kaisha, priority 2001, dated 2004)
Where two headings read alike, the source gives them in different places.

Assays:
[1] = tested on: DLD-1; assay: Anti-proliferative activity assay, DLD-1; format: cell-based, human; conditions: DLD-1 colorectal cancer cells, 4 days, WST-8, read-out: Anti-proliferative activity assay (IC50 in nM) DLD-1 (CRC)
Method: (§1) Antiproliferative activity assay was carried out as follows. A single suspension of tumor cells was inoculated to the serially diluted 96-well microtestplate. Then the testplate was incubated in the 5% CO2 ambience at 37° C. for 4 days (2-3×10^3 cells/well). The degree of cell growth in a monolayer was measured by using WST-8 (Dojindo, Japan). IC50 values of drugs against tumor cells were calculated as the concentration of drug yielding 50% OD of the control growth. The IC50 value measures the drug concentration for 50% of the growth of tumor cells in vitro as compared to the control.
(§2) The anti-tumor activities of hexacyclic compounds of the formula [1A] and [1B] against in vitro growth of human tumor cell lines, HCT116 and DLD-1 of colorectal cancer (CRC) and QG56 and NCI-H460 of non small cell lung cancer (NSCLC) are summarized in Table 1. These cell lines are commercially available via the American Type Culture Collection (ATTC).

[2] = tested on: QG56; assay: Anti-proliferative activity assay, QG56; format: cell-based, human; conditions: QG56 non small cell lung cancer cells, 4 days, WST-8, read-out: Anti-proliferative activity assay (IC50 in nM) QG56 (NSCLC)
Method: as §1, §2

[3] = tested on: HCT116; assay: Anti-proliferative activity assay, HCT116; format: cell-based, human; conditions: HCT116 colorectal cancer cells, 4 days, WST-8, read-out: Anti-proliferative activity assay (IC50 in nM) HCT116 (CRC)
Method: as §1, §2

[4] = tested on: NCI-H460; assay: Anti-proliferative activity assay, NCI-H460; format: cell-based, human; conditions: NCI-H460 non small cell lung cancer cells, 4 days, WST-8, read-out: Anti-proliferative activity assay (IC50 in nM) NCI-H460 (NSCLC)
Method: as §1, §2

[5] = converted to the inactive carboxylate form; cited from earlier work

Structure (SMILES)	IC50 ([1]; Homo sapiens, 96 h)	IC50 ([2]; Homo sapiens, QG-56, 96 h)	IC50 ([3]; Homo sapiens, HCT-116, 96 h)	IC50 ([4]; Homo sapiens, 96 h)	half-life in plasma [5]	IC50 [1]	IC50 [2]	IC50 [3]	IC50 [4]
CCCCCN1C=Nc2cccc3nc4c(c1c23)Cn1c-4cc2c(c1=O)COC(=O)[C@]2(O)CC [Compound B, (9S)-9-ethyl-9-hydroxy-1-pentyl-1H,12H-pyrano[3″,4″:6′,7′]indolizino[1′,2′:6,5]pyrido[4,3,2-de]quinazoline-10,13(9H,15H)-dione]	23 nM	7.7 nM	6.1 nM	7 nM					
CC[C@@]1(O)C(=O)OCc2c1cc1n(c2=O)Cc2c-1nc1cccc3c1c2N(CCC(C)C)C(CO)=N3 [Compound F, (9S)-9-ethyl-9-hydroxy-2-hydroxymethyl-1-(3-methylbutyl)-1H,12H-pyrano[3″,4″:6′,7′]indolizino[1′,2′:6,5]pyrido[4,3,2-de]quinazoline-10,13(9H,15H)-dione]	12 nM	7.4 nM	3.1 nM	4.8 nM					
CC[C@@]1(O)C(=O)OCc2c1cc1n(c2=O)Cc2cc3ccccc3nc2-1 [camptothecin, 4(S)-ethyl-4-hydroxy-1H-pyrano[3′,4′:6,7]indolizino[1,2-b]quinoline-3,14(4H,12H)-dione]					less than 30 min				
CC[C@@]1(O)C(=O)OCc2c1cc1n(c2=O)Cc2c-1nc1cccc3c1c2N(CCc1ccccc1)C(=O)N3 [Compound A, (9S)-9-ethyl-9-hydroxy-1-phenethyl-1H,12H-pyrano[3″,4″:6′,7′]indolizino[1′,2′:6,5]pyrido[4,3,2-de]quinazoline-2,10,13(3H,9H,15H)-trione]	11 nM	7.1 nM	1.9 nM	6.5 nM					
CCCCCN1C(C)=Nc2cccc3nc4c(c1c23)Cn1c-4cc2c(c1=O)COC(=O)[C@]2(O)CC [Compound E, (9S)-9-ethyl-9-hydroxy-2-methyl-1-pentyl-1H,12H-pyrano[3″,4″:6′,7′]indolizino[1′,2′:6,5]pyrido[4,3,2-de]quinazoline-10,13(9H,15H)-dione]	15 nM	15 nM	4.5 nM	7.9 nM					
CC[C@@]1(O)C(=O)OCc2c1cc1n(c2=O)Cc2c-1nc1cccc3c1c2NC(=S)N3CCC(C)C [Compound D, (9S)-9-ethyl-9-hydroxy-1-(3-methylbutyl)-2(3H)-thioxo-1H,12H-pyrano[3″,4″:6′,7′]indolizino[1′,2′:6,5]pyrido[4,3,2-de]quinazoline-10,13(9H,15H)-dione]						15 nM	17 nM	5.1 nM	10 nM
CCc1c2c(nc3ccc(O)cc13)-c1cc3c(c(=O)n1C2)COC(=O)[C@]3(O)CC [SN-38, 7-ethyl-10-hydroxycamptothecin, reference compound]						53 nM	27 nM	6.9 nM	21 nM
